Results taken from patent publication US20080145886A1, “Assay for Cytochrome P450 Isoforms 3A4 and 3A5” (priority 2004, published 2008).

Key:
[1] = target: T1, CYP3A4/5 (Homo sapiens, UniProt P08684); experiment: in vitro; conditions: microsomes
Protocol: Quantification of 6β-hydroxytestosterone and 2β-hydroxytestosterone. Aliquots of the assay reaction mixture and of metabolite standard curves were analyzed by HPLC using an Agilent HP1100 liquid chromatograph (Agilent Technologies) equipped with a CTC Analytics PAL autosampler (HTS PAL; CTC Analytics AG, Switzerland). Chromatography was performed on an XTERRA MS C18 column (4.6 mm×5 cm; 5 μm; Waters Corp.) at a flow rate of 1 mL/min, using a mobile phase consisting of a mixture of 0.1% formic acid in water (A) and 0.1% formic acid in acetonitrile (B) (linear gradient for 4 min from 5-100% B; 2 min at 100% B). The eluant was diverted to waste for the first minute, and then to a Sciex API-2000 triple quadrupole mass spectrometer with a Turbo Ionspray ionization source operated in the positive ion mode. […] Metabolite concentrations were determined by weighted linear least-squares regression analysis of peak area ratios vs. those of a standard curve, using Analyst Quantitation Wizard software version 1.4.

[2] = target: T1, CYP3A4/5; experiment: in vitro; conditions: pH 7.6; for IC50: microsomes
Protocol: Pooled HLM were obtained from Gentest Corp. (Woburn, Mass.). Inhibitors were added to the reaction mixture from stock solutions in DMSO, giving a final solvent concentration of 0.6% (v/v). No inhibitor controls contained an equivalent amount of vehicle. Following preincubation for 10 minutes at 37° C., reactions were started by addition of 1 mM NADPH and an NADPH regenerating system containing 5 mM glucose-6-phosphate, 3 mM MgCl2, and 1 U/mL glucose-6-phosphate dehydrogenase. Assays were conducted for 10 minutes at 37° C. and stopped by addition of HCl to a final concentration of 0.1 N. Plates were then centrifuged for 10 minutes in a microplate rotor and supernatants loaded into the wells of a preconditioned 30 mg OASIS 96-well HLB plate. OASIS HLB 96 well extraction plates containing 10 or 30 mg of OASIS sorbent and vacuum manifold were purchased from Waters Corp. Vacuum was applied and the void volume collected in the collection plate. Then, 200 μL of water was added, vacuum was applied again, and the wash was collected into the same plate. This step was repeated. Pooled void volume and water washes were transferred into scintillation vials and counted in a beta-scintillation counter. Alternatively, aliquots were counted in […] scintillation plates using a TOPCOUNT scintillation counter (Packard, Perkin Elmer, Boston, Mass.). For the calculation of enzyme activity, product counts were corrected by subtraction of counts obtained in control incubations performed in the absence of NADPH regenerating system.
Total radioactivity was 100,000 to 200,000 dpm, reaction volume was 100 μL, and solvent concentration (coming from inhibitor stock solutions) was 0.3-0.7% DMSO and 0.5% acetonitrile (v/v). […] Radioactivity was determined using a Beckman beta scintillation counter, or by counting 120 μL aliquots in 96-well scintillation plates using a TOPCOUNT scintillation counter. […]
Without using the known ^TV/K ratio (which would be tautological, since it was derived from SAP), v′, the apparent formation rate of unlabelled product, can be calculated. […]

[3] = tested on: CYP3A4/5
Protocol: Cryopreserved human hepatocytes from two different donors were obtained from Tissue Transformation Technologies (Edison, N.J.). […] CYP3A4/5 enzyme activity was then determined as follows.
The incubation medium was then loaded onto individual wells of preconditioned 30 mg OASIS plates, which were washed two times with 200 μL of water. For each well, the flow-through was combined with the water washes and counted in a beta-counter after addition of scintillation fluid. 6-p-hydroxytestosterone was eluted from the OASIS plates with 1 mL of methanol, dried under N2, and reconstituted in 200 uL of 50% acetonitrile/water (50:50) containing 0.1% of formic acid. Aliquots were injected into an HPLC-MS/MS system for quantification of 6β-hydroxytestosterone. Quantification was based on comparison of peak areas with those of a standard curve that was treated and extracted exactly like unknown samples.

[4] = target: T1, CYP3A4/5; conditions: human hepatocytes, 200 μM testosterone, 10 μM ketoconazole, 1 hour
Protocol: For each well, the flow-through was combined with the water washes and counted in a beta-counter after addition of scintillation fluid.
Aliquots were injected into an HPLC-MS/MS system for quantification of 6β-hydroxytestosterone. Quantification was based on comparison of peak areas with those of a standard curve that was treated and extracted exactly like unknown samples.

[5] = target: T1, CYP3A4/5; conditions: HLM
[6] = target: T1, CYP3A4/5; conditions: HLM; remark: listed apart in the source
[7] = target: CYP3A4 (Homo sapiens, UniProt P08684); conditions: read-out: IC50 (Draper et al.); competitive substrate; cited from earlier work
Chain of CYP3A4 (P08684 whole entry): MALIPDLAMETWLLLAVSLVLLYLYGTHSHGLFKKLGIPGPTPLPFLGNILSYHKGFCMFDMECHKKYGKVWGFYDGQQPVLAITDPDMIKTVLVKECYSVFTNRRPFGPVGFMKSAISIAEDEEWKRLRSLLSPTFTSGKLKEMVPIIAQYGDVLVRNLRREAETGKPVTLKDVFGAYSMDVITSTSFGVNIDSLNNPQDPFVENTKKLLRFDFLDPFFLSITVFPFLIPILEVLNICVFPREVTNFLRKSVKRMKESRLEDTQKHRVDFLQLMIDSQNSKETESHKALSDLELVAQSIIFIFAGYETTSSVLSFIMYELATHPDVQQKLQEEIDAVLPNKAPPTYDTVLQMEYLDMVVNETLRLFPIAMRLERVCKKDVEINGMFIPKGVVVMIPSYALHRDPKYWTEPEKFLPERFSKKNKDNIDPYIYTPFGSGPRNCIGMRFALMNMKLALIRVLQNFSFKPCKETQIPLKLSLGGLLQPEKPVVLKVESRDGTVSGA

T1 sequence (P08684 2-503): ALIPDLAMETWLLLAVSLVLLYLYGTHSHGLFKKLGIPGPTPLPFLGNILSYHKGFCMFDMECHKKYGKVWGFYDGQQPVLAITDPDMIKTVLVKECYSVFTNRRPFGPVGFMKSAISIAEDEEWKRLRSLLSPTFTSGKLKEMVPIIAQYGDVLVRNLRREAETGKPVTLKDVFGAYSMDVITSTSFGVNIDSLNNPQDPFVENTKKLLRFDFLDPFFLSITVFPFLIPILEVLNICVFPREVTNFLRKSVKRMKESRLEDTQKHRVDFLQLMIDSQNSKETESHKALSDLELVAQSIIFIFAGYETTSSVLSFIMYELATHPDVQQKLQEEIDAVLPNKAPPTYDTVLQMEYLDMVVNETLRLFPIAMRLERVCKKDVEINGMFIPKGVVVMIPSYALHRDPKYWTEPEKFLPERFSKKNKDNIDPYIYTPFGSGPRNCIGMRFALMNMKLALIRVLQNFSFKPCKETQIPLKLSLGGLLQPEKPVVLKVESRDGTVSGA

## CC(C)C[C@H]1C(=O)N2CCC[C@H]2[C@]2(O)O[C@](NC(=O)[C@@H]3C=C4c5cccc6[nH]c(Br)c(c56)C[C@H]4N(C)C3)(C(C)C)C(=O)N12 [Bromocriptine]
[1]
  IC50: 1400 ± 10 nM
[2]
  IC50: 1200 ± 300 nM

## CC(=O)N1CCN(c2ccc(OCC3COC(Cn4ccnc4)(c4ccc(Cl)cc4Cl)O3)cc2)CC1 (stereo not shown) [Ketoconazole]
[3]
  Inhibition of 6β-hydroxytestosterone formation in cultured hepatocytes: almost completely inhibited
  Inhibition of [^3H]-H2O formation in cultured hepatocytes: almost completely inhibited
[4]
  Formation rate of 6β-hydroxytestosterone: Not detected

## Clc1ccc(COC(Cn2ccnc2)c2ccc(Cl)cc2Cl)c(Cl)c1 (stereo not shown) [Miconazole]
[2]
  IC50: 60 ± 10 nM

## COC(=O)C1=C(C)NC(C)=C(C(=O)OCCN(C)Cc2ccccc2)C1c1cccc([N+](=O)[O-])c1 (stereo not shown) [Nicardipine]
[5]
  n (Hill coefficient) LC-MS: 2.7
[6]
  n (Hill coefficient) Radiometric: 2.5

## CC[C@H]1OC(=O)[C@H](C)[C@@H](O[C@H]2C[C@@](C)(OC)[C@@H](O)[C@H](C)O2)[C@H](C)[C@@H](O[C@@H]2O[C@H](C)C[C@H](N(C)C)[C@H]2O)[C@](C)(O)C[C@@H](C)C(=O)[C@H](C)[C@@H](O)[C@]1(C)O [erythromycin]
[7]
  IC50: 130000 nM

## C[C@]12CC[C@H]3[C@@H](CCC4=CC(=O)CC[C@@]43C)[C@@H]1CC[C@@H]2O [testosterone]
[2]
  V′max (apparent maximal rate of product formation): 1.3 ± 0.1 nmol/min/mg
